The target in the assay is T1, F508del (Homo sapiens, UniProt P13569, DEL508-508).
T1 construct: expressed in transfected cells
T1 sequence (P13569 with tags, fused parts or gaps DEL508-508): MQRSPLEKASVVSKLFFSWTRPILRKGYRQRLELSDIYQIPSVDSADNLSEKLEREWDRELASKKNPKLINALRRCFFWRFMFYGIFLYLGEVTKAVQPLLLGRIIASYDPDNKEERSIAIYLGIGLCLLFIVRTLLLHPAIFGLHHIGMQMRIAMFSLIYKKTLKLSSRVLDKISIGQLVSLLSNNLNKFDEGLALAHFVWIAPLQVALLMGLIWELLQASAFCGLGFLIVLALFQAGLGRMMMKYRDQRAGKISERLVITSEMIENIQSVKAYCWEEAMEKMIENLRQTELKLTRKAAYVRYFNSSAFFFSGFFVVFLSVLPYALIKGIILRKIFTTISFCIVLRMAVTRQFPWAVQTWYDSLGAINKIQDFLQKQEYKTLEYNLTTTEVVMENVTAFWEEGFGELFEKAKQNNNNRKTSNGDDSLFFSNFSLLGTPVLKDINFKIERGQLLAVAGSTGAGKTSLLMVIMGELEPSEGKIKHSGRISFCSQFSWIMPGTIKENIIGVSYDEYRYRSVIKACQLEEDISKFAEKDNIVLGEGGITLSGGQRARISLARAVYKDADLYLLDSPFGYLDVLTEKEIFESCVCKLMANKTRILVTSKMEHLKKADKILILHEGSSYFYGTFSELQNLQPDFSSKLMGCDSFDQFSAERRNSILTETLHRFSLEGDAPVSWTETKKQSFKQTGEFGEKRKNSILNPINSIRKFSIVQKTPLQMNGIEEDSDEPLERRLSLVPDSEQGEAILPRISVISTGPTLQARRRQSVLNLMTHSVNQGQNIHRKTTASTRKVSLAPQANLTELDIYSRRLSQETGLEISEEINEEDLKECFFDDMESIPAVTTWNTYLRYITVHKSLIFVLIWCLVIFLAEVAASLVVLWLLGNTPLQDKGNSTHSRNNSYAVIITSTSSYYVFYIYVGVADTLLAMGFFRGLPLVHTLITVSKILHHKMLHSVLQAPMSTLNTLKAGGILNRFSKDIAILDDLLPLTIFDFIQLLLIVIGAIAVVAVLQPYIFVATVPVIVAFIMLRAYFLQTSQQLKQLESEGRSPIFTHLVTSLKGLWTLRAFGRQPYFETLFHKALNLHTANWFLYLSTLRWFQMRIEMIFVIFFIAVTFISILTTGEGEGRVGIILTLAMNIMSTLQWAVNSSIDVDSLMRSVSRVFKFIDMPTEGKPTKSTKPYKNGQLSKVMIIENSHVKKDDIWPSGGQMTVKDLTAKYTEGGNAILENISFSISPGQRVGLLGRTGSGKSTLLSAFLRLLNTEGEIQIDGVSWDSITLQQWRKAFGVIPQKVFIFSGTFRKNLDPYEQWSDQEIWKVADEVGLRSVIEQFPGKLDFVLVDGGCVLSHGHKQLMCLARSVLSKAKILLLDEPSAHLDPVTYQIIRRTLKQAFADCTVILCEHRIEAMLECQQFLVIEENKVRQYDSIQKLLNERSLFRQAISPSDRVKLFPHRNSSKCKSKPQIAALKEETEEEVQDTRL
In words: Protocol 1: membrane potential optical assay (FLIPR III, voltage sensing dye), identification of potentiator compounds. It counts as cell-based. The settings on record: Table 3, compounds of Table 1. A digest of the protocol: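 NIH 3T3 fibroblasts stably expressing F508del were cultured at 27° C for 24 hrs for temperature correction, then treated with compounds or DMSO and loaded with a voltage-sensing redistribution dye. Forskolin added with a Cl⁻ gradient activated the channel; membrane-potential fluorescence on FLIPR III reported increased gating.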
For `C[C@@H]1CN(c2nc(-c3cc(F)ccc3F)ccc2C(=O)NS(=O)(=O)c2ccc[nH]c2=O)C(C)(C)C1` [Compound 1954, 6-(2,5-difluorophenyl)-N-[(2-oxo-1H-pyridin-3-yl)sulfonyl]-2-[(4S)-2,2,4-trimethylpyrrolidin-1-yl]pyridine-3-carboxamide], the EC30 entry is “+++ (“+++” means <3 uM)”. To `CC#Cc1ccc(C(=O)NS(=O)(=O)c2cccc(N)n2)c(Oc2c(C)cc(C)cc2C)n1` [Compound 1172, N-[(6-amino-2-pyridyl)sulfonyl]-6-prop-1-ynyl-2-(2,4,6-trimethylphenoxy)pyridine-3-carboxamide] belongs “++ (“++” means between 3 uM and 10 uM)”; to `COc1ccc(-c2ccc(C(=O)NS(=O)(=O)c3cccnc3N)c(N3C[C@@H](C)CC3(C)C)n2)c(CO)c1` [Compound 1707, N-[(2-amino-3-pyridyl)sulfonyl]-6-[2-(hydroxymethyl)-4-methoxy-phenyl]-2-[(4S)-2,2,4-trimethylpyrrolidin-1-yl]pyridine-3-carboxamide], “++ (“++” means between 3 uM and 10 uM)”. On to `COC[C@H]1CCCN1c1nc(-c2cc(F)cc(OCC(C)C)c2)ccc1C(=O)NS(=O)(=O)c1cccc(N)n1` [Compound 1149, N-[(6-amino-2-pyridyl)sulfonyl]-6-(3-fluoro-5-isobutoxy-phenyl)-2-[(2R)-2-(methoxymethyl)pyrrolidin-1-yl]pyridine-3-carboxamide], for which the EC30 result is reported as “+++ (“+++” means <3 uM)”.

Consider `CCN(CCOC)c1cccc(S(=O)(=O)NC(=O)c2cccnc2N2CC(C)CC2(C)C)n1` (centres unmarked) [Compound 1870, N—[[6-[ethyl(2-methoxyethyl)amino]-2-pyridyl]sulfonyl]-2-(2,2,4-trimethylpyrrolidin-1-yl)pyridine-3-carboxamide], for which the EC30 entry is “++ (“++” means between 3 uM and 10 uM)”. For the compound `Cc1ccc(-c2ccc(C(=O)NS(=O)(=O)c3cccc(N)n3)c(Oc3c(C)cc(C)cc3C)n2)nc1` [Compound 1290, N-[(6-amino-2-pyridyl)sulfonyl]-6-(5-methyl-2-pyridyl)-2-(2,4,6-trimethylphenoxy)pyridine-3-carboxamide], the EC30 entry is “+++ (“+++” means <3 uM)”. For the compound `CC1CN(c2ncccc2C(=O)NS(=O)(=O)c2cccc(Nc3ccc4ncsc4c3)n2)C(C)(C)C1` (centres unmarked) [Compound 1775, N—[[6-(1,3-benzothiazol-6-ylamino)-2-pyridyl]sulfonyl]-2-(2,24-trimethylpyrrolidin-1-yl)pyridine-3-carboxamide], the EC30 result is on record as “+++ (“+++” means <3 uM)”. Consider `CC(CO)Oc1ccc(-c2ccc(C(=O)NS(=O)(=O)c3cccc(N)n3)c(N3[C@H](C)CC[C@@H]3C)n2)cn1` (stereo partly drawn) [Compound 998, N-[(6-amino-2-pyridyl)sulfonyl]-2-[(2S,5R)-2,5-dimethylpyrrolidin-1-yl]-6-[6-(2-hydroxy-1-methyl-ethoxy)-3-pyridyl]pyridine-3-carboxamide], for which the EC30 result is “++ (“++” means between 3 uM and 10 uM)”. As for `CC(C)COc1cc(F)cc(-c2ccc(C(=O)NS(=O)(=O)c3cccc(N)n3)c(N3CCC[C@H]3C(F)(F)F)n2)c1` [Compound 1304, N-[(6-amino-2-pyridyl)sulfonyl]-6-(3-fluoro-5-isobutoxy-phenyl)-2-[(2S)-2-(trifluoromethyl)pyrrolidin-1-yl]pyridine-3-carboxamide], the EC30 entry is “+++ (“+++” means <3 uM)”. Regarding `COc1ccc(-c2ccc(C(=O)NS(=O)(=O)c3cccnc3N)c(N3C[C@@H](C)CC3(C)C)n2)c(C)n1` [Compound 1866, N-[(2-amino-3-pyridyl)sulfonyl]-6-(6-methoxy-2-methyl-3-pyridyl)-2-[(4S)-2,2,4-trimethylpyrrolidin-1-yl]pyridine-3-carboxamide], the EC30 result is reported as “+++ (“+++” means <3 uM)”. Consider `CC(C)Oc1ccc(-c2nc(N3C[C@H](C)CC3(C)C)ccc2C(=O)NS(=O)(=O)c2cccc(N)n2)cn1` [Compound 1491, N-[(6-amino-2-pyridyl)sulfonyl]-2-(6-isopropoxy-3-pyridyl)-6-[(4R)-2,2,4-trimethylpyrrolidin-1-yl]pyridine-3-carboxamide], for which the EC30 entry is “++ (“++” means between 3 uM and 10 uM)”.

As to `CC(C)COc1cc(F)cc(-c2ccc(C(=O)NS(=O)(=O)c3cccc(N)n3)c(N3CCCCC3(C)C)n2)c1` [Compound 1004, N-[(6-amino-2-pyridyl)sulfonyl]-2-(2,2-dimethyl-1-piperidyl)-6-(3-fluoro-5-isobutoxy-phenyl)pyridine-3-carboxamide], the EC30 entry was “+++ (“+++” means <3 uM)”. In the case of `CC1CN(c2ncccc2C(=O)NS(=O)(=O)c2cccc(Nc3ccc4[nH]ccc4c3)n2)C(C)(C)C1` (centres unmarked) [Compound 1823, N—[[6-(1H-indol-5-ylamino)-2-pyridyl]sulfonyl]-2-(2,2,4-trimethylpyrrolidin-1-yl)pyridine-3-carboxamide], the EC30 result is “+++ (“+++” means <3 uM)”. Regarding `Cc1ccc(-c2ccc(C(=O)NS(=O)(=O)c3cccc(N)n3)c(N3C[C@@H](C)CC3(C)C)n2)cc1F` [Compound 1922, N-[(6-amino-2-pyridyl)sulfonyl]-6-(3-fluoro-4-methyl-phenyl)-2-[(4S)-2,2,4-trimethylpyrrolidin-1-yl]pyridine-3-carboxamide], the EC30 entry is given as “+++ (“+++” means <3 uM)”. Turning to `CC(C)Oc1ccc(-c2ccc(C(=O)NS(=O)(=O)c3cccc(N)n3)c(N3CCC[C@@H]3C(F)(F)F)n2)cn1` [Compound 1230, N-[(6-amino-2-pyridyl)sulfonyl]-6-(6-isopropoxy-3-pyridyl)-2-[(2R)-2-(trifluoromethyl)pyrrolidin-1-yl]pyridine-3-carboxamide], the EC30 entry was “++ (“++” means between 3 uM and 10 uM)”.

In the case of `CC(C)COc1cc(F)cc(-c2ccc(C(=O)NS(=O)(=O)c3cccc(N)n3)c(OCC3CCOC3)n2)c1` (centres unmarked) [Compound 1499, N-[(6-amino-2-pyridyl)sulfonyl]-6-(3-fluoro-5-isobutoxy-phenyl)-2-(tetrahydrofuran-3-ylmethoxy)pyridine-3-carboxamide], the EC30 result was “++ (“++” means between 3 uM and 10 uM)”.

For the compound `C[C@@H]1CN(c2nc([C@H]3CC[C@H](C(F)(F)F)CC3)ccc2C(=O)NS(=O)(=O)c2ccc[nH]c2=O)C(C)(C)C1` [Compound 1710, N-[(2-oxo-1H-pyridin-3-yl)sulfonyl]-6-[4-(trifluoromethyl)cyclohexyl]-2-[(4S)-2,2,4-trimethylpyrrolidin-1-yl]pyridine-3-carboxamide], the EC30 entry is “+++ (“+++” means <3 uM)”. Consider `CC(C)COc1cc(F)cc(-c2ccc(C(=O)NS(=O)(=O)c3cccc(N)n3)c(OCCC3CC3)n2)c1` [Compound 1685, N-[(6-amino-2-pyridyl)sulfonyl]-2-(2-cyclopropylethoxy)-6-(3-fluoro-5-isobutoxy-phenyl)pyridine-3-carboxamide], for which the EC30 result is on record as “+++ (“+++” means <3 uM)”. For `CC(C)COc1cc(F)cc(-c2ccc(C(=O)NS(=O)(=O)c3cccc(N)n3)c(N3CCC(C)C(C)C3)n2)c1` (single isomer, unassigned) [Compound 1863, N-[(6-amino-2-pyridyl)sulfonyl]-2-(3,4-dimethyl-1-piperidyl)-6-(3-fluoro-5-isobutoxy-phenyl)pyridine-3-carboxamide], the EC30 entry is given as “+++ (“+++” means <3 uM)”. For the compound `Cc1cc(-c2ccc(C(=O)NS(=O)(=O)c3cccc(N)n3)c(N3C[C@@H](C)CC3(C)C)n2)cnc1OCC(C)C` [Compound 1741, N-[(6-amino-2-pyridyl)sulfonyl]-6-(6-isobutoxy-5-methyl-3-pyridyl)-2-[(4S)-2,2,4-trimethylpyrrolidin-1-yl]pyridine-3-carboxamide], the EC30 result is recorded as “+++ (“+++” means <3 uM)”. With `Cc1cccc(C)c1Oc1nc(-c2cc(F)cc(OCC(C)CO)c2)ccc1C(=O)NS(=O)(=O)c1cccc(N)n1` (centres unmarked) [Compound 1797, N-[(6-amino-2-pyridyl)sulfonyl]-2-(2,6-dimethylphenoxy)-6-[3-fluoro-5-(3-hydroxy-2-methyl-propoxy)phenyl]pyridine-3-carboxamide], the EC30 entry is “+++ (“+++” means <3 uM)”.

Consider `CC(C)COc1cc(F)cc(-c2ccc(C(=O)NS(=O)(=O)c3cccc(N)n3)c(N(C)C(C)c3cccc(Cl)c3)n2)c1` (centres unmarked) [Compound 1205, N-[(6-amino-2-pyridyl)sulfonyl]-2-[1-(3-chlorophenyl)ethyl-methyl-amino]-6-(3-fluoro-5-isobutoxy-phenyl)pyridine-3-carboxamide], for which the EC30 result was “+++ (“+++” means <3 uM)”.

Regarding `CC(C)Oc1ccc(-c2ccc(C(=O)NS(=O)(=O)c3cccc(N)n3)c(N3CCC(Oc4ccccc4)C3)n2)cn1` (centres unmarked) [Compound 1092, N-[(6-amino-2-pyridyl)sulfonyl]-6-(6-isopropoxy-3-pyridyl)-2-(3-phenoxypyrrolidin-1-yl)pyridine-3-carboxamide], the EC30 result was “++ (“++” means between 3 uM and 10 uM)”.

Turning to `CC1CN(c2nc(C(C)(C)C)c(C3=CC(C)(C)OC(C)(C)C3)cc2C(=O)NS(=O)(=O)c2cccc(N)n2)C(C)(C)C1` (centres unmarked) [Compound 1647, N-[(6-amino-2-pyridyl)sulfonyl]-6-tert-butyl-5-(2,2,6,6-tetramethyl-3H-pyran-4-yl)-2-(2,2,4-trimethylpyrrolidin-1-yl)pyridine-3-carboxamide], the EC30 result is given as “+++ (“+++” means <3 uM)”. For the compound `CC(C)COc1cc(F)cc(-c2ccc(C(=O)NS(=O)(=O)c3cccc(N)n3)c(OCCCn3cccn3)n2)c1` [Compound 1692, N-[(6-amino-2-pyridyl)sulfonyl]-6-(3-fluoro-5-isobutoxy-phenyl)-2-(3-pyrazol-1-ylpropoxy)pyridine-3-carboxamide], the EC30 entry is “++ (“++” means between 3 uM and 10 uM)”. For `CC1CN(c2ncccc2C(=O)NS(=O)(=O)c2cccc(OCC3CCCO3)n2)C(C)(C)C1` (centres unmarked) [Compound 1764, N—[[6-(tetrahydrofuran-2-ylmethoxy)-2-pyridyl]sulfonyl]-2-(2,2,4-trimethylpyrrolidin-1-yl)pyridine-3-carboxamide] the value was “++ (“++” means between 3 uM and 10 uM)”.

(Values after patent publication US10758534B2 (Vertex Pharmaceuticals Incorporated, priority 2014, dated 2020).)
